Test system: db/db mice
Assay: glucose tolerance test in mouse model of diabetes mellitus disease
Type: in vivo
Details: db/db mice, 0.5, 1, 5 and 10 mg/kg subcutaneously, glucose 1.5 g/kg i.p. after 30 minutes
Protocol: The glucose tolerance level in a mouse model of diabetes mellitus disease according to the HKFY derivative treatment was analyzed (FIG. 87).
Specifically, male db/db mice (5 to 7-week-old, Central Lab. Animal Inc.), which is a mouse model of diabetes mellitus disease, were fasted for 16 hours, and then HKFY-34 was administered subcutaneously at a concentration of 0.5, 1, 5 and 10 mg/kg, respectively. After 30 minutes, glucose (1.5 g/kg) was intraperitoneally administered. After 0, 15, 30, 45, 60, 90, 120 and 180 minutes, blood was collected from the tail of the mice, and the blood glucose was measured with a blood glucose meter (acc-check, Roche, Germany) to analyze the glucose tolerance.

## CCCCCCCC(=O)NCCCC[C@H](NC(=O)[C@@H](N)Cc1cn(C(c2ccccc2)c2ccccc2)cn1)C(=O)N[C@H](Cc1ccc(C)cc1)C(=O)N[C@@H](Cc1ccc(O)cc1)C(=O)O [HKFY-34, ((R)-2-((S)-2-((S)-2-amino-3-(1-benzhydryl-1H-imidazol-4-yl)propanamido)-6-octanamidohexanamido)-3-(p-tolyl)propanoyl)-L-tyrosine]
  glucose tolerance: significant glucose tolerance in a concentration dependent manner
